HELM strings list units from the 5' end as sugar, base in round brackets, then linkage (d deoxyribose, r ribose, m 2'-O-methyl, p phosphodiester). Strings are as the collection lists them; they lack the last nucleoside at the 3' end of the tested compound. [moe] = 2'-O-(2-methoxyethyl) (MOE); [sp] = phosphorothioate linkage; [m5C] = 5-methylcytosine

The target of this series is GFAP. The series can be described thus: mouse, dose not given. The settings on record: ASO.
“RNA1{[moe](G)[sp].[moe]([m5C])p.[moe](A)p.[moe](T)p.[moe](T)[sp].d(T)[sp].d(G)[sp].d(T)[sp].d([m5C])[sp].d(T)[sp].d(T)[sp].d(T)[sp].d(A)[sp].[moe](T)p.[moe](T)p.[moe](T)[sp].[moe](T)}$$$$ (last 3' nucleoside missing)” displayed a 3 h FOB score of 1 score 0-7. The figure for “RNA1{[moe](A)[sp].[moe](G)p.[moe](T)p.[moe]([m5C])p.[moe](T)[sp].d([m5C])[sp].d(A)[sp].d(G)[sp].d(T)[sp].d(T)[sp].d(T)[sp].d(T)[sp].d([m5C])[sp].d([m5C])[sp].d(T)[sp].[moe]([m5C])p.[moe]([m5C])p.[moe](A)[sp].[moe](G)}$$$$ (last 3' nucleoside missing)” is 2 score 0-7; for “RNA1{[moe](G)[sp].[moe](G)p.[moe]([m5C])p.[moe]([m5C])p.[moe](T)[sp].d(A)[sp].d([m5C])[sp].d(T)[sp].d(T)[sp].d([m5C])[sp].d(T)[sp].d([m5C])[sp].d(T)[sp].d(A)[sp].d(G)[sp].[moe](G)p.[moe](T)p.[moe](G)[sp].[moe](G)}$$$$ (last 3' nucleoside missing)” it is 1 score 0-7; for “RNA1{[moe]([m5C])[sp].[moe](A)p.[moe](A)p.[moe](G)p.[moe]([m5C])[sp].d(T)[sp].d([m5C])[sp].d(T)[sp].d(G)[sp].d([m5C])[sp].d([m5C])[sp].d(A)[sp].d(G)[sp].d(T)[sp].d(T)[sp].[moe](T)p.[moe](A)p.[moe](A)[sp].[moe](T)}$$$$ (last 3' nucleoside missing)” it is 5 score 0-7.

The substance “RNA1{[moe]([m5C])[sp].[moe](T)p.[moe](T)p.[moe](T)p.[moe](A)[sp].d(T)[sp].d(T)[sp].d(T)[sp].d(T)[sp].d(T)[sp].d([m5C])[sp].d([m5C])[sp].d(T)[sp].d([m5C])[sp].d(A)[sp].[moe](G)p.[moe]([m5C])p.[moe](G)[sp].[moe](A)}$$$$ (last 3' nucleoside missing)” came in with a 3 h FOB score of 0 score 0-7. The figure for “RNA1{[moe](A)[sp].[moe](T)p.[moe](T)p.[moe](T)p.d(G)[sp].d(T)[sp].d([m5C])[sp].d(T)[sp].d(T)[sp].d(T)[sp].d(A)[sp].d(T)[sp].d(T)[sp].d(T)[sp].[moe](T)p.[moe](T)p.[moe]([m5C])p.[moe]([m5C])[sp].[moe](T)}$$$$ (last 3' nucleoside missing)” is 0 score 0-7. The figure for “RNA1{[moe](G)[sp].[moe](A)p.[moe](G)p.[moe](A)p.[moe]([m5C])[sp].d(A)[sp].d(T)[sp].d(G)[sp].d([m5C])[sp].d(A)[sp].d(T)[sp].d(A)[sp].d(T)[sp].d([m5C])[sp].d(T)[sp].[moe](A)p.[moe](G)p.[moe](T)[sp].[moe](G)}$$$$ (last 3' nucleoside missing)” is 6 score 0-7.

“RNA1{[moe](G)[sp].[moe](G)p.[moe](T)p.[moe](A)p.[moe](T)[sp].d(G)[sp].d(A)[sp].d(T)[sp].d(A)[sp].d(G)[sp].d(G)[sp].d([m5C])[sp].d(T)[sp].d([m5C])[sp].d(T)[sp].[moe](G)p.[moe](G)p.[moe]([m5C])[sp].[moe](T)}$$$$ (last 3' nucleoside missing)” came in with a 3 h FOB score of 5 score 0-7. The figure for “RNA1{[moe]([m5C])[sp].[moe](A)p.[moe]([m5C])p.[moe](G)p.[moe](T)p.[moe]([m5C])p.d(A)[sp].d([m5C])[sp].d(A)[sp].d(T)[sp].d(T)[sp].d([m5C])[sp].d(A)[sp].d([m5C])[sp].d(T)[sp].d(A)[sp].[moe](A)p.[moe](T)[sp].[moe](A)}$$$$ (last 3' nucleoside missing)” is 0 score 0-7. The figure for “RNA1{[moe](T)[sp].[moe](G)p.[moe](T)p.[moe](G)p.[moe](A)[sp].d([m5C])[sp].d(T)[sp].d(A)[sp].d(T)[sp].d([m5C])[sp].d(T)[sp].d(A)[sp].d(G)[sp].[moe](G)p.[moe](A)p.[moe](T)[sp].[moe](T)}$$$$ (last 3' nucleoside missing)” is 3 score 0-7; for “RNA1{[moe](G)[sp].[moe](T)p.[moe](T)p.[moe](T)p.[moe]([m5C])[sp].d([m5C])[sp].d(T)[sp].d(T)[sp].d(T)[sp].d(T)[sp].d(A)[sp].d([m5C])[sp].d([m5C])[sp].d(A)[sp].d(A)[sp].[moe](G)p.[moe]([m5C])p.[moe](T)[sp].[moe](G)}$$$$ (last 3' nucleoside missing)” it is 4 score 0-7.

Regarding “RNA1{[moe]([m5C])[sp].[moe]([m5C])p.[moe]([m5C])p.[moe]([m5C])p.[moe](T)[sp].d([m5C])[sp].d(T)[sp].d(T)[sp].d([m5C])[sp].d([m5C])[sp].d(T)[sp].d([m5C])[sp].d([m5C])[sp].d(A)[sp].d(G)[sp].[moe]([m5C])p.[moe]([m5C])p.[moe](G)[sp].[moe]([m5C])}$$$$ (last 3' nucleoside missing)”, the 3 h FOB score was found to be 3 score 0-7. “RNA1{[moe](G)[sp].[moe](G)p.[moe]([m5C])p.[moe](G)p.[moe](A)[sp].d(G)[sp].d([m5C])[sp].d(G)[sp].d(G)[sp].d(A)[sp].d(G)[sp].d(G)[sp].d([m5C])[sp].d([m5C])[sp].d(T)[sp].[moe](G)p.[moe](G)p.[moe](G)[sp].[moe](T)}$$$$ (last 3' nucleoside missing)” displayed a 3 h FOB score of 7 score 0-7. The figure for “RNA1{[moe](T)[sp].[moe](G)p.[moe](G)p.[moe]([m5C])p.[moe](A)[sp].d(G)[sp].d(T)[sp].d(A)[sp].d(T)[sp].d(T)[sp].d(A)[sp].d([m5C])[sp].d([m5C])[sp].d(T)[sp].d([m5C])[sp].[moe](T)p.[moe](A)p.[moe]([m5C])[sp].[moe](T)}$$$$ (last 3' nucleoside missing)” is 1 score 0-7. In the case of “RNA1{[moe]([m5C])[sp].[moe](T)p.[moe](T)p.[moe](T)p.d(T)[sp].d(G)[sp].d(A)[sp].d(G)[sp].d(A)[sp].d(T)[sp].d(A)[sp].d(T)[sp].d([m5C])[sp].d(T)[sp].[moe](T)p.[moe](G)p.[moe](T)p.[moe](G)[sp].[moe](A)}$$$$ (last 3' nucleoside missing)”, the 3 h FOB score was determined as 1 score 0-7. The figure for “RNA1{[moe](T)[sp].[moe](G)p.[moe](A)p.[moe](G)p.[moe](T)[sp].d([m5C])[sp].d(T)[sp].d([m5C])[sp].d(A)[sp].d(G)[sp].d(T)[sp].d(T)[sp].d(T)[sp].d(T)[sp].d([m5C])[sp].[moe]([m5C])p.[moe](T)p.[moe]([m5C])[sp].[moe]([m5C])}$$$$ (last 3' nucleoside missing)” is 0 score 0-7. The figure for “RNA1{[moe](A)[sp].[moe](T)p.[moe](G)p.[moe](G)p.[moe](G)[sp].d(T)[sp].d(G)[sp].d(A)[sp].d(G)[sp].d(G)[sp].d(T)[sp].d(G)[sp].d(A)[sp].d(G)[sp].d(G)[sp].[moe](A)p.[moe](G)p.[moe](T)[sp].[moe]([m5C])}$$$$ (last 3' nucleoside missing)” is 5 score 0-7; for “RNA1{[moe](A)[sp].[moe](G)p.[moe]([m5C])p.[moe](A)p.[moe](T)[sp].d(T)[sp].d(T)[sp].d(G)[sp].d(T)[sp].d([m5C])[sp].d(T)[sp].d(T)[sp].d(T)[sp].[moe](A)p.[moe](T)p.[moe](T)[sp].[moe](T)}$$$$ (last 3' nucleoside missing)” it is 3 score 0-7; for “RNA1{[moe](T)[sp].[moe](A)p.[moe]([m5C])p.[moe](A)p.[moe](T)[sp].d([m5C])[sp].d([m5C])[sp].d([m5C])[sp].d([m5C])[sp].d(T)[sp].d(T)[sp].d(T)[sp].d([m5C])[sp].d(T)[sp].d([m5C])[sp].[moe](T)p.[moe]([m5C])p.[moe]([m5C])[sp].[moe](T)}$$$$ (last 3' nucleoside missing)” it is 1 score 0-7. In the case of “RNA1{[moe]([m5C])[sp].[moe](G)p.[moe](G)p.[moe]([m5C])p.[moe](T)[sp].d([m5C])[sp].d(T)[sp].d([m5C])[sp].d(T)[sp].d([m5C])[sp].d(A)[sp].d(T)[sp].d([m5C])[sp].d(T)[sp].d(G)[sp].[moe](T)p.[moe]([m5C])p.[moe](A)[sp].[moe](A)}$$$$ (last 3' nucleoside missing)”, the 3 h FOB score was 2 score 0-7. The figure for “RNA1{[moe](A)[sp].[moe](T)p.[moe](T)p.[moe](T)p.[moe](G)[sp].d(T)[sp].d([m5C])[sp].d(T)[sp].d(T)[sp].d(T)[sp].d(A)[sp].d(T)[sp].d(T)[sp].d(T)[sp].d(T)[sp].[moe](T)p.[moe]([m5C])p.[moe]([m5C])[sp].[moe](T)}$$$$ (last 3' nucleoside missing)” is 0 score 0-7. Consider “RNA1{[moe](T)[sp].[moe](A)p.[moe](T)p.[moe]([m5C])p.[moe](T)[sp].d(G)[sp].d(T)[sp].d(G)[sp].d([m5C])[sp].d(T)[sp].d(T)[sp].d(T)[sp].d(A)[sp].[moe](G)p.[moe](T)p.[moe](G)[sp].[moe](A)}$$$$ (last 3' nucleoside missing)”, for which the 3 h FOB score is 3 score 0-7.

“RNA1{[moe](A)[sp].[moe](G)p.[moe](T)p.[moe]([m5C])p.[moe](A)[sp].d(G)[sp].d([m5C])[sp].d([m5C])[sp].d(T)[sp].d(G)[sp].d(G)[sp].d(T)[sp].d(T)[sp].d(A)[sp].d(G)[sp].[moe]([m5C])p.[moe]([m5C])p.[moe](T)[sp].[moe](T)}$$$$ (last 3' nucleoside missing)” showed a 3 h FOB score of 6 score 0-7. The figure for “RNA1{[moe](G)[sp].[moe](G)p.[moe](T)p.[moe](A)p.[moe](A)[sp].d(G)[sp].d([m5C])[sp].d(T)[sp].d(G)[sp].d([m5C])[sp].d(T)[sp].d(G)[sp].d(G)[sp].d(A)[sp].d(G)[sp].[moe](T)p.[moe](A)p.[moe](A)[sp].[moe](G)}$$$$ (last 3' nucleoside missing)” is 7 score 0-7; for “RNA1{[moe](A)[sp].[moe](A)p.[moe](A)p.[moe](G)p.[moe](G)p.[moe]([m5C])p.d(A)[sp].d([m5C])[sp].d(A)[sp].d(G)[sp].d(T)[sp].d(T)[sp].d([m5C])[sp].d([m5C])[sp].d([m5C])[sp].d(A)[sp].[moe](G)p.[moe](A)[sp].[moe](T)}$$$$ (last 3' nucleoside missing)” it is 2 score 0-7.

These data come from the OligoGym collection.
